{"source": "ChEMBL document CHEMBL1201862", "about": "“PubChem BioAssay data set” (2004)", "key": {"[1]": {"experiment": "cytotoxicity in HPDE-C7 cells, cell-based, fluorescence, HTS (AID 430)", "assay_type": "functional", "details": "Homo sapiens"}, "[2]": {"experiment": "cytotoxicity in KRAS-transformed pancreatic duct cells, primary screen, cell-based, fluorescence, HTS (AID 431);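 further: cell line used: HPDE-C7K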", "assay_type": "functional", "details": "Homo sapiens"}, "[3]": {"target": "Glyceraldehyde-3-phosphate dehydrogenase (Homo sapiens, UniProt P04406)", "sequence (P04406 whole entry)": "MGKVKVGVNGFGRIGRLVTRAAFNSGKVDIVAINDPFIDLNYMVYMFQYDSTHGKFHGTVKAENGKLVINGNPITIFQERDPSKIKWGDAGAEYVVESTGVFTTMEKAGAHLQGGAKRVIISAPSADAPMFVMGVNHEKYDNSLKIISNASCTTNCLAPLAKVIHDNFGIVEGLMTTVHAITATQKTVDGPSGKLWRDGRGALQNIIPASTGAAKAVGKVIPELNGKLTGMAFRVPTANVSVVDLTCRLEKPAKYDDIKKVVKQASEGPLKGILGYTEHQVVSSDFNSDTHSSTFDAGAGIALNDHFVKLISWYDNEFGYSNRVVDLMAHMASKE"}, "[4]": {"target": "Prothrombin (Homo sapiens, UniProt P00734)", "experiment": "Thrombin 1536 HTS Dose Response Confirmation. [Related pubchem assays: 1046 (Thrombin 1536 HTS; hits were confirmed in this assay)]", "assay_type": "functional"}, "[5]": {"experiment": "cells", "assay_type": "functional, cell-based"}, "[6]": {"experiment": "cells", "assay_type": "functional, cell-based", "remark": "listed apart in the source"}, "[7]": {"target": "Cytochrome P450 2D6 (Homo sapiens, UniProt P10635)", "sequence (P10635 whole entry)": "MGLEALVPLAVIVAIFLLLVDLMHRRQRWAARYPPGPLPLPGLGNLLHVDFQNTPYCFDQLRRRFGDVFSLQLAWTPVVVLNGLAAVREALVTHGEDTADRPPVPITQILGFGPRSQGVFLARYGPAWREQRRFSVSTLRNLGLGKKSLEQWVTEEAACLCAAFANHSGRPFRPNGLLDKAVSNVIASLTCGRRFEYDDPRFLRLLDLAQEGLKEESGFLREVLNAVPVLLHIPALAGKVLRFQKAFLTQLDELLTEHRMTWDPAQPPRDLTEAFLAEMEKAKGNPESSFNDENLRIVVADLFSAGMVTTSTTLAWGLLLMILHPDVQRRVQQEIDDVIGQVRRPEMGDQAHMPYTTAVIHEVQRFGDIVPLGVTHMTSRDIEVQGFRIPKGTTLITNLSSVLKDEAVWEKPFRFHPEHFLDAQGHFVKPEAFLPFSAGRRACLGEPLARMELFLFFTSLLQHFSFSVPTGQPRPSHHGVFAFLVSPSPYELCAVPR"}, "[8]": {"target": "Cytochrome P450 3A4 (Homo sapiens, UniProt P08684)", "sequence (P08684 whole entry)": "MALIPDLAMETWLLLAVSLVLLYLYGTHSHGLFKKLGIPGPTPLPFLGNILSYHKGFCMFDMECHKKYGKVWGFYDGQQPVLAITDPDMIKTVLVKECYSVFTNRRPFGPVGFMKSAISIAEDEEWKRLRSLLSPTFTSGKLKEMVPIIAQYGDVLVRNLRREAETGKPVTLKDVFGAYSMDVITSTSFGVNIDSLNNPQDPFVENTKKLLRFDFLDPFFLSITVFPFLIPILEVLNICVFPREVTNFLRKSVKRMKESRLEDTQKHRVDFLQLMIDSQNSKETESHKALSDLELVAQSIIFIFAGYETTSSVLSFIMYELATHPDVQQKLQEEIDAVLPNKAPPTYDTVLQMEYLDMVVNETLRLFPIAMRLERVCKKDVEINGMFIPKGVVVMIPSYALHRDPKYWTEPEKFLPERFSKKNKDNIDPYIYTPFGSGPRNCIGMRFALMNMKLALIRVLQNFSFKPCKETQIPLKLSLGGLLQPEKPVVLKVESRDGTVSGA"}, "[9]": {"target": "Cytochrome P450 2C9 (Homo sapiens, UniProt P11712)", "sequence (P11712 whole entry)": "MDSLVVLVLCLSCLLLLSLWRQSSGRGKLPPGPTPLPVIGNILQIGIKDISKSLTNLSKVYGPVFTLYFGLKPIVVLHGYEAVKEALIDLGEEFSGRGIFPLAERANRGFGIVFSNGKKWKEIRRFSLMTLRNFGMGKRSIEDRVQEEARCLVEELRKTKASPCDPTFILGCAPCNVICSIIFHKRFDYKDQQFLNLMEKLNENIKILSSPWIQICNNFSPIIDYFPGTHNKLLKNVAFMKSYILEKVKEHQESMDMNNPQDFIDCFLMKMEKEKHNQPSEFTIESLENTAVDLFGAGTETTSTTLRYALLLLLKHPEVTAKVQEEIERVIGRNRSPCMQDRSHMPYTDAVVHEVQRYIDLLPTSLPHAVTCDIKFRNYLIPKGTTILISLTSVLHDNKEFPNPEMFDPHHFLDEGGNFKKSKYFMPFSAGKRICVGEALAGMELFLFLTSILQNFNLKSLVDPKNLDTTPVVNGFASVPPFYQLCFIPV"}, "[10]": {"experiment": "growth suppression of PTEN-null colon cells, dose response, cell-based, HCT116 PTEN knockout (AID 1047);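 further: HCT116 colon tumor cells with PTEN knocked out; cells exposed to compound for 60 hours before readout; potency for loss of cell viability measured by luminescence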", "assay_type": "functional"}, "[11]": {"experiment": "growth suppression of beta-catenin-knockout colon cells, dose response, cell-based, HCT116, human colon tumor (AID 1045);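 further: HCT116 colon tumor cells with beta catenin knocked out; cells exposed to compound for 60 hours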", "assay_type": "functional"}, "[12]": {"target": "T1, Mannose-6-phosphate isomerase (Homo sapiens, UniProt P34949)", "T1 sequence (P34949 whole entry)": "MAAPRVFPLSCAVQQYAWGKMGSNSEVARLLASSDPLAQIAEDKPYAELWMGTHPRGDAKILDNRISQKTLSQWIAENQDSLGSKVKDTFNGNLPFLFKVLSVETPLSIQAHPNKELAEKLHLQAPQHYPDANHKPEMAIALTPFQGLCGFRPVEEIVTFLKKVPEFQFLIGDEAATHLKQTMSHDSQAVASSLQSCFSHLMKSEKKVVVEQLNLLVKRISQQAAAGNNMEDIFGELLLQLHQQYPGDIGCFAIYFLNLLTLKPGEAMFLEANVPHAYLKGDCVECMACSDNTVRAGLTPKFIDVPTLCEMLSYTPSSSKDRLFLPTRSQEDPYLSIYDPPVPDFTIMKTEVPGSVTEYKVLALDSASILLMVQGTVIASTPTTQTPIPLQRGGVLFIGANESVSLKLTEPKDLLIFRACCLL", "experiment": "human PMI inhibitors, high substrate, primary screen, biochemical, fluorescence intensity, high mannose 6-phosphate (AID 1220)"}, "[13]": {"experiment": "Luminescence Cell-Based Dose Retest to Confirm Inhibitors of Cancer Stem Cells. [Related pubchem assays (depositor defined):AID2717, AID2721]", "assay_type": "functional", "details": "Homo sapiens"}, "[14]": {"target": "T2, Heat shock factor protein 1 (Mus musculus, UniProt P38532)", "T2 sequence (P38532 whole entry)": "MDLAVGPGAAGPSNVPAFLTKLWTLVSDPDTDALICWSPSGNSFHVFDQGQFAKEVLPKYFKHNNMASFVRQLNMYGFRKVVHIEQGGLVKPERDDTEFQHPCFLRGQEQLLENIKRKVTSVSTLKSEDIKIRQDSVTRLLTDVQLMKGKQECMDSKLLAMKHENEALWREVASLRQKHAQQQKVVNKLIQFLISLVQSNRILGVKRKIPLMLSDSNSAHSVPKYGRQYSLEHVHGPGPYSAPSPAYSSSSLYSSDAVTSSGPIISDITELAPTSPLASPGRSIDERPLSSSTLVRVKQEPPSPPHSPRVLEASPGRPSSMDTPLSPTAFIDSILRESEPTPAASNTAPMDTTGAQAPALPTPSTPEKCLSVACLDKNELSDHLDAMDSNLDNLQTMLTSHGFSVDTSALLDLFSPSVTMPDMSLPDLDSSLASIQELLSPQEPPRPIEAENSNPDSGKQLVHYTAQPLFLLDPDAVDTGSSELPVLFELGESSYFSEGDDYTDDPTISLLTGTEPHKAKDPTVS", "experiment": "HSF1 potentiators in luciferase reporter cells, confirmation, cell-based, NIH3T3, luminescence, dose retest (AID 435004);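 further: stress induced by proteasome inhibitor MG132 added 30 min after compound; actives raise luminescence as potentiators of the MG132 stress response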", "assay_type": "functional"}, "[15]": {"experiment": "Shn3 3'UTR reporter inhibitors, dose response, cell-based, Clone20 osteoblasts, firefly luciferase, cherry-picked (AID 624132)", "assay_type": "functional"}, "[16]": {"experiment": "HepG2 cell cytotoxicity, dose response, cytotoxicity control for Shn3 inhibitor project, CellTiter-Glo, cherry-picked (AID 624134)", "assay_type": "functional, cell-based"}, "[17]": {"experiment": "control 3'UTR Renilla luciferase suppression, dose response, counter-screen for Shn3 inhibitor project, cell-based, Clone20-Shn3RL, cherry-picked (AID 624133)", "assay_type": "functional"}, "[18]": {"target": "T3, Fatty acid synthase (Homo sapiens, UniProt P49327)", "T3 sequence (P49327 whole entry, the tested form may be a part)": "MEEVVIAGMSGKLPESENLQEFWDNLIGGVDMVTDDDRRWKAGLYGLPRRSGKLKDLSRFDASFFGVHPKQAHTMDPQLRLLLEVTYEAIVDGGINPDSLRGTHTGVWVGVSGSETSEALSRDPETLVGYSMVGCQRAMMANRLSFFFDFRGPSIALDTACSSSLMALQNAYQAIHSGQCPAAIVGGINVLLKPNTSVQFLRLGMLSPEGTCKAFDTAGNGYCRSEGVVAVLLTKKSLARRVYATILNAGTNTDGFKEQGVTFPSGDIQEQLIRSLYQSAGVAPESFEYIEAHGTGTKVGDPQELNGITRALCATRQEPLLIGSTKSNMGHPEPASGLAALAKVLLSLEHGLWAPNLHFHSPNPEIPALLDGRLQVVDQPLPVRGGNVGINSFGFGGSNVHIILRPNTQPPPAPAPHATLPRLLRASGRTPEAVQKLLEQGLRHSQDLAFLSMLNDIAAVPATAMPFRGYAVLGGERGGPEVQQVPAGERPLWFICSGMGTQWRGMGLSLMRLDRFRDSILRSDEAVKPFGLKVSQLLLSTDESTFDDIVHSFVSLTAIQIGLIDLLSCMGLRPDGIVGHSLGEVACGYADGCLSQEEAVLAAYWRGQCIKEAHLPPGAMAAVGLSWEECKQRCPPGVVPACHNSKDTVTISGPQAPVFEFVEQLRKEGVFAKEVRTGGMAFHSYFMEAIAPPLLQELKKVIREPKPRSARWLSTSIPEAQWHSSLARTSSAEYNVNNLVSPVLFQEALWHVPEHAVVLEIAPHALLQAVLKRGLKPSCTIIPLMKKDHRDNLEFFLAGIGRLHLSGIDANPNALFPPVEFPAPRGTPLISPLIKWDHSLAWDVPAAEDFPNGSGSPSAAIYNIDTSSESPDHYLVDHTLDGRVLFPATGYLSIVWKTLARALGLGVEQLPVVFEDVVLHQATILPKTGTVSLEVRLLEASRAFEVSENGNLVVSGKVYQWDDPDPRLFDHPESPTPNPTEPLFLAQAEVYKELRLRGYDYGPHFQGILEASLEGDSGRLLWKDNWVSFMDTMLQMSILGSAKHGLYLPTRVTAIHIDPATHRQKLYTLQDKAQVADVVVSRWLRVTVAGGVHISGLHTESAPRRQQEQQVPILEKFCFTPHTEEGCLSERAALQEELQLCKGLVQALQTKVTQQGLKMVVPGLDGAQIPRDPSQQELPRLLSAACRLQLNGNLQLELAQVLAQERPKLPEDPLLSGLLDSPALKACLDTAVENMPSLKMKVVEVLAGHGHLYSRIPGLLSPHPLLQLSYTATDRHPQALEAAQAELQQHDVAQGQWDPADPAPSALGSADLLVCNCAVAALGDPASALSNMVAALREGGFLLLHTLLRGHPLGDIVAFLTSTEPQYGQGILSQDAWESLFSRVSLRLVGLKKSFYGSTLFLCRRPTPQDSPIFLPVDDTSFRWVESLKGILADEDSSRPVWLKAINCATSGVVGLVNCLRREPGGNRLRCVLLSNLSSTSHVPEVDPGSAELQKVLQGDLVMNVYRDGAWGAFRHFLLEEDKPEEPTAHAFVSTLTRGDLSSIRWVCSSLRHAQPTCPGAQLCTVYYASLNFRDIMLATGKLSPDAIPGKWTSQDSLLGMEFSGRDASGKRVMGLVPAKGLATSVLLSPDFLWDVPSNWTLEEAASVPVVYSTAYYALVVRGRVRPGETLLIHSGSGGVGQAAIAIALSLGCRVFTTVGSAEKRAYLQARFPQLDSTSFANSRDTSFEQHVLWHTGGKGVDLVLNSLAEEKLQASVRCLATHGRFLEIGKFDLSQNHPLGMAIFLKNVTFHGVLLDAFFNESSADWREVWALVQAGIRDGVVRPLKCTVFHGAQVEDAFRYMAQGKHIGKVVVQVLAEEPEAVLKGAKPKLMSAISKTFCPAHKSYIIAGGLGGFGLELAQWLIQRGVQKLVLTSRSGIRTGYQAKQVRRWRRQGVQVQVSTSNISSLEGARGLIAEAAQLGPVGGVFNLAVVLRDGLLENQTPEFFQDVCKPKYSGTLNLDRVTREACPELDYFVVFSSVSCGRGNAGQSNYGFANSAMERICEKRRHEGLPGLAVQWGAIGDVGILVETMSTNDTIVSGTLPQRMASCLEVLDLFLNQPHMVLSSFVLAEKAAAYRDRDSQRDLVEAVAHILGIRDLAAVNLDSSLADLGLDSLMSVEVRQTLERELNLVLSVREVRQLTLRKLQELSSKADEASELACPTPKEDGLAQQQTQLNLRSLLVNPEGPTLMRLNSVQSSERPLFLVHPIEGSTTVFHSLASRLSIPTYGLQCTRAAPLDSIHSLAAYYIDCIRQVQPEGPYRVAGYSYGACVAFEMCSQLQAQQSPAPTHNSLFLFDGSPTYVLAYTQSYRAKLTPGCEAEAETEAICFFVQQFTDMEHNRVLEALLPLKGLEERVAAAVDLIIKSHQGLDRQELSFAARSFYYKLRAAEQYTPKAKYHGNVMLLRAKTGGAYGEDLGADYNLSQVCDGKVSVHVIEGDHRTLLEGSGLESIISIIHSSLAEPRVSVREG", "experiment": "FAS thioesterase domain inhibitors, dose response, biochemical, endpoint fluorescence intensity, uHTS hits (AID 624327);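 further: fluorescence from hydrolysis of an O-methyl fluorescein acyl ester substrate by the enzyme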", "assay_type": "functional"}, "[19]": {"target": "T3, Fatty acid synthase", "experiment": "FAS thioesterase domain inhibitors, dose response, biochemical, kinetic fluorescence intensity (AID 624326);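 further: rate of fluorescence rise from hydrolysis of a fluorogenic O-methyl fluorescein ester substrate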", "assay_type": "functional"}, "[20]": {"test_system": "HEK293", "experiment": "NOD1 signaling inhibitors, primary screen, cell-based, luminescence, uHTS (AID 1578)", "assay_type": "functional", "details": "Homo sapiens"}, "[21]": {"test_system": "HEK293", "experiment": "cells", "assay_type": "functional, cell-based", "details": "Homo sapiens"}, "[22]": {"test_system": "HEK293", "experiment": "cells", "assay_type": "functional, cell-based", "details": "Homo sapiens", "remark": "listed apart in the source"}, "[23]": {"target": "Nucleotide-binding oligomerization domain-containing protein 2 (Homo sapiens, UniProt Q9HC29)", "experiment": "NOD2 signaling inhibitors, cell-based, luminescence, uHTS, HEK293 (AID 1566)", "assay_type": "functional"}, "[24]": {"test_system": "HEK293", "experiment": "NOD2 signaling inhibitors in MDP-stimulated cells, cell-based, uHTS, luminescence (AID 2001)", "assay_type": "functional", "details": "Homo sapiens"}, "[25]": {"test_system": "HEK293", "experiment": "cells", "assay_type": "functional, cell-based", "details": "Homo sapiens", "remark": "listed apart in the source"}, "[26]": {"experiment": "inhibitors of intracellular T. cruzi replication, confirmation, NIH3T3 host cells, beta-gal luminescence (AID 2044);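 further: luminescent beta-galactosidase reporter signal from transgenic T. cruzi replicating inside host cells; inhibitors lower the luminescence signal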", "assay_type": "functional, cell-based"}, "[27]": {"experiment": "cytotoxicity toward NIH3T3 fibroblasts, dose response, counter-screen, cell-based, ATP luminescence, mouse fibroblasts (AID 2010);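 further: cells exposed to compound for about 90 hours before reading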", "assay_type": "functional"}, "[28]": {"experiment": "cells"}}, "note": "Active and inactive are the calls of the source."}
{"smiles": "O=C(CCCN1C(=O)c2cccnc2C1=O)N1CC(=O)N(CCc2ccccc2)C(=O)C1", "values": [{"measurement": "EC50", "setting": "[1]", "result": "> 20 µM (not active)"}, {"measurement": "EC50", "setting": "[2]", "result": "> 20 µM (not active)"}]}
{"smiles": "Cc1cccc(N2C(=O)C(Cl)=C(N3CCN[C@H](C)C3)C2=O)c1", "values": [{"measurement": "IC50", "setting": "[3]", "result": "> 50 µM (inconclusive)"}]}
{"smiles": "Nc1nnc(SCCCC(=O)c2ccccc2)s1", "values": [{"measurement": "IC50", "setting": "[4]", "result": "> 50 µM (not active)"}]}
{"smiles": "CCOc1nc(NCCN2CCOCC2)nc(Nc2ccc(C)cc2)n1", "values": [{"measurement": "EC50", "setting": "[5]", "result": "> 350 µM (not active)"}, {"measurement": "EC50", "setting": "[6]", "result": "> 350 µM (not active)"}, {"measurement": "IC50", "setting": "[4]", "result": "> 50 µM (not active)"}, {"measurement": "AC50", "setting": "[7]", "result": "11.2 µM (inconclusive)"}, {"measurement": "AC50", "setting": "[8]", "result": "15.8 µM (inconclusive)"}, {"measurement": "AC50", "setting": "[9]", "result": "11.2 µM (inconclusive)"}]}
{"smiles": "O=[N+]([O-])c1c(NCCCO)cc(Sc2ccc(Cl)cc2)c2nonc12", "values": [{"measurement": "EC50", "setting": "[10]", "result": "13.5 µM (active)"}, {"measurement": "EC50", "setting": "[11]", "result": "9.46 µM (active)"}, {"measurement": "IC50", "setting": "[12]", "result": "> 50 µM (not active)"}, {"measurement": "AC50", "setting": "[13]", "result": "4.49 µM (active)"}, {"measurement": "EC50", "setting": "[14]", "result": "4.81 µM (active)"}, {"measurement": "AC50", "setting": "[15]", "result": "5.63 µM (active)"}, {"measurement": "AC50", "setting": "[16]", "result": "25.4 µM (active)"}, {"measurement": "AC50", "setting": "[17]", "result": "12.7 µM (active)"}, {"measurement": "IC50", "setting": "[18]", "result": "11.5 µM (active)"}, {"measurement": "IC50", "setting": "[19]", "result": "6.69 µM (active)"}]}
{"smiles": "CCOC(=O)C1=C(N)c2ccccc2CC1C(C)C", "note": "(configuration not stated)", "values": [{"measurement": "EC50", "setting": "[1]", "result": "> 20 µM (not active)"}, {"measurement": "EC50", "setting": "[2]", "result": "> 20 µM (not active)"}]}
{"smiles": "CCC(=O)Nc1cccc(C(=O)OCc2cccc([N+](=O)[O-])c2)c1", "values": [{"measurement": "IC50", "setting": "[4]", "result": "> 50 µM (not active)"}]}
{"smiles": "COc1ccc(C(=O)NC(=C(Cl)Cl)S(=O)(=O)c2ccc(C)cc2)cc1", "values": [{"measurement": "EC50", "setting": "[20]", "result": "12.3 µM (active)"}, {"measurement": "IC50", "setting": "[21]", "result": "8.07 µM (active)"}, {"measurement": "IC50", "setting": "[22]", "result": "> 20 µM (inactive)"}, {"measurement": "EC50", "setting": "[23]", "result": "> 20 µM (inactive)"}, {"measurement": "IC50", "setting": "[24]", "result": "8.96 µM (active)"}, {"measurement": "IC50", "setting": "[25]", "result": "> 20 µM (inactive)"}]}
{"smiles": "Cc1ccc2c(CN3CCN(Cc4ccccc4)CC3)cc(=O)oc2c1", "values": [{"measurement": "EC50", "setting": "[26]", "result": "< 0.1 µM (active)"}, {"measurement": "EC50", "setting": "[27]", "result": "> 60 µM (not active)"}, {"measurement": "EC50", "setting": "[28]", "result": "0.049 µM (active)"}]}
